Patent US9963448B2, “Bicyclic inhibitors of PAD4” (Padlock Therapeutics, Inc., priority 2015, dated 2018)
Read-outs that look alike come from different tables or passages of the source.

Target: hPAD4 (Homo sapiens, UniProt Q9UM07)
Assay: hPAD4 RFMS (RapidFire mass spectrometry) PAD4 inhibition assay;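 for hPAD4 RFMS pIC50: grade E means pIC50 at most 4 and F means pIC50 4.0 to 5.0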
Type: biochemical
Settings: hPAD4 enzyme, RFMS readout
Description: Compounds of the present invention were assayed as inhibitors of PAD4 using the assay protocol described below.
Compound stock solutions were stored at RT. […] Final assay conditions were as follows:
Total incubation time: 65 mins at 37° C.
Stop solution: 40 μl 5% TCA in ACN
The compound numbers correspond to the compound numbers in Table 1. […] The term pIC50=−log(IC50). […] “NA” stands for “not assayed.”

[1] = pIC50=−log(IC50), read-out: hPAD4 RFMS pIC50 (converted)

Sequence of hPAD4 (Q9UM07 whole entry): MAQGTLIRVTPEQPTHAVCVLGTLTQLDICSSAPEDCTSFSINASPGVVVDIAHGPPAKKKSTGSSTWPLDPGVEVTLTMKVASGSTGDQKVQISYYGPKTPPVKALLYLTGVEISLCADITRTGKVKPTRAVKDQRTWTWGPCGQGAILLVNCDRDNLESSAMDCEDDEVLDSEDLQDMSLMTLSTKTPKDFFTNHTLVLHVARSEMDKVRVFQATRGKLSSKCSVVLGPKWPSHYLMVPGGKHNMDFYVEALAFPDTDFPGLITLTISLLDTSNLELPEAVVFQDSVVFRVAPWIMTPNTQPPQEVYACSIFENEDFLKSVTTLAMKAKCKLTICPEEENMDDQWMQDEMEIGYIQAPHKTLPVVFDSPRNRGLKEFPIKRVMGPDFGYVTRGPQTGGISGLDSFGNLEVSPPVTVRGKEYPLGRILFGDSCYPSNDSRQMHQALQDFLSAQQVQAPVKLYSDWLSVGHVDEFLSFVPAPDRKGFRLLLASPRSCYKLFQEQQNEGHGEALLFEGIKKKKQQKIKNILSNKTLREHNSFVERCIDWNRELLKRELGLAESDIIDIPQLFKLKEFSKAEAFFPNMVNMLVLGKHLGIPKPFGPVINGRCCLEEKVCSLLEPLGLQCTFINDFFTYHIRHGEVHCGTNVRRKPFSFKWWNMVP

Row | SMILES | IC50 [1] [µM] | IC50 (read-out: hPAD4 RFMS IC50) [µM]
1 | Cn1c(-c2cc3cccnc3n2CC2CC2)nc2cc(C(=O)N3CCC4(CCCN4)C3)ccc21 (stereo not shown) [Compound I-39] | 10 to 100 | > 10
2 | Cn1c(-c2cc3cccnc3n2CC2CC2)nc2cc(C(=O)N3CCC4CNC4C3)ccc21 (stereo not shown) [Compound I-40] | 10 to 100 | > 10
3 | Cn1c(-c2cc3cccnc3n2CC2CC2)nc2cc(C(=O)N3CCCC4(CCCN4)C3)ccc21 (stereo not shown) [Compound I-41] | 10 to 100 | > 10
4 | Cn1c(-c2cc3cccnc3n2CC2CC2)nc2cc(C(=O)N3CCCC4(CCN4)C3)ccc21 (stereo not shown) [Compound I-42] | > 100 | > 10
5 | Cn1c(-c2cc3cccnc3n2CC2CC2)nc2cc(C(=O)N3CCC[C@@H]4CNC[C@@H]43)ccc21 [Compound I-43] | > 100 | > 10
6 | Cn1c(-c2cc3cccnc3n2CC2CC2)nc2cc(C(=O)N3CCC[C@H]4CNC[C@H]43)ccc21 [Compound I-44] | > 100 | > 10
7 | Cn1c(-c2cc3cccnc3n2CC2CC2)nc2cc(C(=O)N3CCCC4(CCCNC4)C3)ccc21 (stereo not shown) [Compound I-45] | > 100 | > 10
8 | Cn1c(-c2cc3cccnc3n2CC2CC2)nc2cc(C(=O)N3CCCC4(CCNC4)C3)ccc21 (stereo not shown) [Compound I-46] | > 100 | > 10
9 | Cn1c(-c2cc3cccnc3n2CC2CC2)nc2cc(C(=O)N3C4CCC3CC(N)C4)ccc21 (stereo not shown) [Compound I-47] | > 100 | > 10
10 | Cn1c(-c2cc3cccnc3n2CC2CC2)nc2cc(C(=O)N3CCCC4(CCCCN4)C3)ccc21 (stereo not shown) [Compound I-48] | 10 to 100 | > 10
11 | Cn1c(-c2cc3cccnc3n2CC2CC2)nc2cc(C(=O)N3CC4CCC(C3)C4N)ccc21 (stereo not shown) [Compound I-50] | > 100 | > 10
12 | Cn1c(-c2cc3cccnc3n2CC2CC2)nc2cc(C(=O)N3CC(N)CC(F)(F)C3)ccc21 (stereo not shown) [Compound I-51] | 10 to 100 | > 10
13 | Cn1c(-c2cc3cccnc3n2CC2CC2)nc2cc(C(=O)N3CCCC4NCCCC43)ccc21 (stereo not shown) [Compound I-53] | > 100 | > 10
14 | COc1cc(C(=O)N2CC[C@H](F)[C@@H](N)C2)cc2nc(-c3cc4cccnc4n3CC3CC3)n(C)c12 [Compound I-58] | 10 to 100 | > 10
15 | Cn1c(-c2cc3cccnc3n2CC2CC2)nc2cc(C(=O)N3CCC[C@H]4NCC[C@H]43)ccc21 [Compound I-60] | 10 to 100 | > 10
16 | Cn1c(-c2cc3cccnc3n2CC2CC2)nc2cc(C(=O)N3CCC[C@@H]4NCC[C@@H]43)ccc21 [Compound I-61] | > 100 | > 10
17 | Cn1c(-c2cc3cccnc3n2CC2CC2)nc2cc(C(=O)N3C4CCC(N)C3CC4)ccc21 (stereo not shown) [Compound I-63] | 10 to 100 | > 10
18 | Cn1c(-c2cc3cccnc3n2CC2CC2)nc2cc(C(=O)N3C[C@H](N)C[C@H](F)C3)ccc21 [Compound I-67] | 10 to 100 | > 10

More lines, now with the values ahead:

Row | IC50 [1] [µM] | IC50 (read-out: hPAD4 RFMS IC50) [µM] | SMILES
19 | 1 to 10 | 1 to 5 | COCCn1c(-c2nc3cc(C(=O)N4C[C@H](N)CC[C@@H]4C)cc(OC)c3n2C)cc2cccnc21 (racemic) [Compound I-170]
20 | 1 to 10 | 1 to 5 | CCn1c(-c2nc3cc(C(=O)N4CC[C@@H]5CCN[C@@H]5C4)cc(OC)c3n2C)cc2cccnc21 (single isomer, unassigned) [Compound I-3]
21 | 10 to 100 | > 10 | CCn1c(-c2nc3cc(C(=O)N4CC[C@H]5CCN[C@H]5C4)cc(OC)c3n2C)cc2cccnc21 (single isomer, unassigned) [Compound I-14]
22 | 10 to 100 | > 10 | CCn1c(-c2nc3cc(C(=O)N4CC[C@H]5CCN[C@H]5C4)ccc3n2C)cc2cccnc21 [Compound I-1]
23 | 10 to 100 | > 10 | Cn1c(-c2cc3ccccc3n2CC2CC2)nc2cc(C(=O)N3CC[C@@H]4CCN[C@@H]4C3)ccc21 [Compound I-2]
24 | 10 to 100 | > 10 | COc1cc(C(=O)N2CC[C@@H]3CCN[C@@H]3C2)cc2nc(-c3cc4cncnc4n3CC3CC3)n(C)c12 [Compound I-4, 5-[(3aS,7aS)-octahydro-1H-pyrrolo[2,3-c]pyridine-6-carbonyl]-2-[7-(cyclopropylmethyl)-7H-pyrrolo[2,3-d]pyrimidin-6-yl]-7-methoxy-1-methyl-1H-1,3-benzodiazole]
25 | 10 to 100 | > 10 | CCn1c(-c2nc3cc(C(=O)N4CC[C@@H]5CCN[C@@H]5C4)ccc3n2C)cc2cccnc21 [Compound I-5]
26 | 1 to 10 | 1 to 5 | Cn1c(-c2cc3cccnc3n2CC2CC2)nc2cc(C(=O)N3CCC4CCNC4C3)ccc21 (stereo not shown) [Compound I-6]
27 | < 1 | < 1 | Cn1c(-c2cc3ccccc3n2CC2CC2)nc2cc(C(=O)N3CC[C@H]4CCN[C@H]4C3)ccc21 [Compound I-7]
28 | < 1 | < 1 | COc1cc(C(=O)N2CCC3CCNC3C2)cc2nc(-c3cc4cccnc4n3CC3CC3)n(C)c12 (stereo not shown) [Compound I-8]
29 | 1 to 10 | 1 to 5 | CCn1c(-c2nc3cc(C(=O)N4CCC5CCNC5C4)cc(OC)c3n2C)cc2cccnc21 (stereo not shown) [Compound I-13, 2-{1-ethyl-1H-pyrrolo[2,3-b]pyridin-2-yl}-7-methoxy-1-methyl-5-{octahydro-1H-pyrrolo[2,3-c]pyridine-6-carbonyl}-1H-1,3-benzodiazole]
30 | 1 to 10 | 5 to 10 | COc1cc(C(=O)N2CCC3CCNC3C2)cc2nc(-c3cc4cncnc4n3CC3CC3)n(C)c12 (stereo not shown) [Compound I-15, 2-[7-(cyclopropylmethyl)-7H-pyrrolo[2,3-d]pyrimidin-6-yl]-7-methoxy-1-methyl-5-{octahydro-1H-pyrrolo[2,3-c]pyridine-6-carbonyl}-1H-1,3-benzodiazole]
31 | 1 to 10 | 5 to 10 | CCn1c(-c2nc3cc(C(=O)N4CCC5CCNC5C4)ccc3n2C)cc2cccnc21 (stereo not shown) [Compound I-16]
32 | > 100 | > 10 | Cn1c(-c2cc3cccnc3n2CC2CC2)nc2cc(C(=O)N3CC4CC3CN4)ccc21 (stereo not shown) [Compound I-37]
33 | > 100 | > 10 | Cn1c(-c2cc3cccnc3n2CC2CC2)nc2cc(C(=O)N3CC4CNC4C3)ccc21 (stereo not shown) [Compound I-38]
34 | 1 to 10 | 5 to 10 | Cn1c(-c2cc3cccnc3n2CC2CC2)nc2cc(C(=O)N3CCC(F)C(N)C3)ccc21 (stereo not shown) [Compound I-49]
35 | 1 to 10 | 1 to 5 | COc1cc(C(=O)N2CC[C@@H](F)[C@H](N)C2)cc2nc(-c3cc4cccnc4n3CC3CC3)n(C)c12 [Compound I-57]
36 | 1 to 10 | 1 to 5 | COc1cc(C(=O)N2C[C@H]3C[C@H](OC)[C@@H]2[C@@H]3N)cc2nc(-c3cc4cccnc4n3CC3CC3)n(C)c12 [Compound I-167, (1 S,4R,6S,7R)-2-{2-[1-(Cyclopropylmethyl)-1H-pyrrolo[2,3-b]pyridin-2-yl]-7-methoxy-1-methyl-1H-1,3-benzodiazole-5-carbonyl}-6-methoxy-2-azabicyclo[2.2.1]heptan-7-amine]
37 | < 1 | < 1 | CCn1c(-c2nc3cc(C(=O)N4C[C@H]5CC[C@@H]4[C@@H]5N)cc(OC)c3n2C[C@H]2C[C@@](C)(OC)C2)cc2cccnc21 [Compound I-168]
38 | < 1 | < 1 | COCCn1c(-c2nc3cc(C(=O)N4C[C@H]5CC[C@@H]4[C@@H]5N)cc(OC)c3n2C)cc2cccnc21 [Compound I-169]
